Here are results for 13 molecules from PubChem BioAssay (NCI).

Structures are written as SMILES.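 Five compound concentrations were applied to cells in 96-well plates for 48 hours; endpoints were derived by simple linear interpolation of the resulting dose-response curve. At the TGI there is no net growth.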 Bounds are passed on as bounds.

Test systems include OVCAR-5 ovarian; CCRF-CEM leukemia; CAKI-1 renal; NCI-H522 lung; SR leukemia; NCI-H23 lung; MALME-3M melanoma; TK-10 renal; SK-MEL-28 melanoma; RPMI-8226 leukemia; MCF7 breast.
What all share (experiment): NCI anticancer screen, dose series, 48 h

For `C=CCn1c(=S)sc2c(=O)[nH]cnc21`, the TGI in the assay on OVCAR-5 ovarian, with CCRF-CEM leukemia, with CAKI-1 renal, with NCI-H522 lung, in the assay on SR leukemia and in the assay with NCI-H23 lung was more than 100 µM each time. Moreover, the TGI in the assay with MALME-3M melanoma and in the assay on TK-10 renal was more than 100 µM in each case.
With `O=C1CSc2ccncc2N1`, the TGI in the assay on OVCAR-5 ovarian, in the assay with CCRF-CEM leukemia, in the assay on SK-MEL-28 melanoma, in the assay with CAKI-1 renal, in the assay with SR leukemia and with NCI-H23 lung was more than 100 µM each time. Also, the TGI in the assay on MALME-3M melanoma and in the assay with TK-10 renal was more than 100 µM throughout.
Consider `Clc1ccc(CSCc2ccc(Cl)cc2Cl)c(Cl)c1`, for which the TGI in the assay with OVCAR-5 ovarian is more than 100 µM; in the assay on CCRF-CEM leukemia, 51.7 µM; in the assay on RPMI-8226 leukemia it was 88.6 µM; in the assay with SK-MEL-28 melanoma, more than 100 µM; in the assay with CAKI-1 renal, more than 100 µM; in the assay with NCI-H522 lung, 74 µM. For the same molecule, the TGI in the assay on NCI-H23 lung was more than 100 µM; in the assay with MALME-3M melanoma, 72.5 µM; in the assay with MCF7 breast, 86.9 µM; in the assay on TK-10 renal, more than 100 µM.
Regarding `CC[C@@H]1C[C@@H](O)[C@@H]2[C@H](O)[C@H](O)CN2C1`, the TGI in the assay with OVCAR-5 ovarian, in the assay with CCRF-CEM leukemia, in the assay with RPMI-8226 leukemia, in the assay on SK-MEL-28 melanoma, in the assay with CAKI-1 renal and with NCI-H522 lung was more than 100 µM throughout. Further, the TGI in the assay on NCI-H23 lung, with MALME-3M melanoma, with MCF7 breast and in the assay on TK-10 renal was more than 100 µM throughout.
As to `CCCN1CN(C(C(=O)N[C@@H]2C(=O)N3C(C(=O)O)=C(C)CSC23)c2ccccc2)CSC1=S` (some centres undefined), the TGI with OVCAR-5 ovarian, in the assay with CCRF-CEM leukemia, with RPMI-8226 leukemia, in the assay on SK-MEL-28 melanoma, in the assay on NCI-H522 lung and with NCI-H23 lung was more than 100 µM each time. Moreover, the TGI in the assay with MALME-3M melanoma and in the assay on TK-10 renal was more than 100 µM each time.
`Cc1ccccc1Nc1cn(CCOc2ccccc2)c(=O)n(CCOc2ccccc2)c1=O`: the TGI with OVCAR-5 ovarian, with CCRF-CEM leukemia, in the assay with RPMI-8226 leukemia, with SK-MEL-28 melanoma, in the assay with CAKI-1 renal and in the assay with NCI-H522 lung was more than 100 µM throughout. The TGI is more than 100 µM in the assay with NCI-H23 lung, 63.7 µM in the assay with MALME-3M melanoma and more than 100 µM with MCF7 breast.
For the molecule `Cc1c(C)c(C)c(CSC(=N)N)c(C)c1C`, the TGI was determined as 29.8 µM in the assay on OVCAR-5 ovarian; 35.4 µM in the assay with CCRF-CEM leukemia; 38.9 µM with RPMI-8226 leukemia; 28.8 µM with SK-MEL-28 melanoma; 25.8 µM with CAKI-1 renal; 33 µM in the assay on NCI-H522 lung. For the same molecule, the TGI in the assay with NCI-H23 lung came to 33.4 µM; with MALME-3M melanoma, 32.9 µM; with MCF7 breast, 30.9 µM; in the assay on TK-10 renal, 28.4 µM.
For `C(=N/Nc1ccccn1)/c1cccnc1`, the TGI in the assay on OVCAR-5 ovarian, in the assay on CCRF-CEM leukemia, in the assay on RPMI-8226 leukemia, in the assay with SK-MEL-28 melanoma, with CAKI-1 renal and in the assay with NCI-H522 lung was more than 100 µM throughout. In addition, the TGI with NCI-H23 lung, with MALME-3M melanoma, in the assay on MCF7 breast and with TK-10 renal was more than 100 µM each time.
For the molecule `CC(C)C(/C=C/c1ccc(Cl)cc1)=N\NC(=S)NN`, the TGI with OVCAR-5 ovarian is more than 100 µM; in the assay on CCRF-CEM leukemia, 13.7 µM; in the assay with RPMI-8226 leukemia, more than 100 µM; in the assay on SK-MEL-28 melanoma, more than 100 µM; in the assay on CAKI-1 renal it was more than 100 µM; in the assay with NCI-H522 lung, 32.4 µM. In addition, the TGI in the assay on NCI-H23 lung was more than 100 µM; in the assay with MALME-3M melanoma, more than 100 µM; with MCF7 breast it was 52.5 µM; in the assay on TK-10 renal, more than 100 µM.
`CCC(C)(C)c1ccc(Oc2cccc(C(=O)O)c2)cc1`: the TGI in the assay with OVCAR-5 ovarian was more than 100 µM; in the assay on CCRF-CEM leukemia, 68 µM; in the assay with RPMI-8226 leukemia it was 65.4 µM; with SK-MEL-28 melanoma it was more than 100 µM; in the assay on CAKI-1 renal it was more than 100 µM; in the assay on NCI-H522 lung it was 89.9 µM. For the same molecule, the TGI with NCI-H23 lung, in the assay with MALME-3M melanoma, in the assay on MCF7 breast and in the assay on TK-10 renal was more than 100 µM in each case.
For `CC(C)(C)OC(=O)N1C(=O)OC[C@@H]2C=C[C@@H]21`, the TGI with OVCAR-5 ovarian, in the assay on CCRF-CEM leukemia, in the assay with RPMI-8226 leukemia, with SK-MEL-28 melanoma, in the assay on CAKI-1 renal and with NCI-H522 lung was more than 100 µM each time. The TGI with NCI-H23 lung, in the assay with MALME-3M melanoma, in the assay with MCF7 breast and in the assay on TK-10 renal was more than 100 µM throughout.
Turning to `CC1(CC(=O)OC(C#C[Si](C)(C)C)Cc2ccccc2)OCCO1` (centres undefined), the TGI in the assay with OVCAR-5 ovarian, with CCRF-CEM leukemia, in the assay on SK-MEL-28 melanoma, in the assay with CAKI-1 renal, in the assay on NCI-H522 lung and in the assay on NCI-H23 lung was more than 100 µM throughout. The TGI with MALME-3M melanoma, in the assay on MCF7 breast and with TK-10 renal was more than 100 µM in each case.
Consider `CCOC(=O)c1cc(Cl)ccc1OC(N)=O`, for which the TGI in the assay on OVCAR-5 ovarian, in the assay with CCRF-CEM leukemia, with RPMI-8226 leukemia, with SK-MEL-28 melanoma, in the assay with CAKI-1 renal and in the assay with NCI-H23 lung was more than 100 µM in each case. Besides, the TGI with MCF7 breast is more than 100 µM.
